The subject of test [1] is L02. Kind of test: Antiproliferative activity against human LO2 cells. The format is functional, cell-based.
For test [2], the system named is SMMC-7721. The experiment in a line: Antiproliferative activity against human SMMC-7721 cells. In kind it is functional, cell-based.
The test system of test [3] is HT-29. The experiment in a line: Antiproliferative activity against human HT-29 cells assessed as reduction in cell growth after 72 hrs by MTT assay. Particulars: HT-29, 72 h. In kind it is functional, cell-based. A general note: Tetrazolium assays rely on reduction of a dye to a coloured formazan, in cell work by metabolically active cells.
Test [4] has as its system HCT-116. Kind of test: Antiproliferative activity against human HCT-116 cells assessed as reduction in cell growth after 72 hrs by MTT assay. In kind it is functional, cell-based. Particulars: HCT-116, 72 h.
Test [5] has as its system PC-3. Kind of test: Antiproliferative activity against human PC-3 cells assessed as reduction in cell growth after 72 hrs by MTT assay. Particulars: PC-3, 72 h. The format is functional, cell-based.
The species named for test [6] is Homo sapiens. The experiment in a line: Inhibition of human pancreatic lipase at 10 uM relative to control.

Experimental findings from ChEMBL document CHEMBL6074621, “Recent advances of honokiol:pharmacological activities, manmade derivatives and structure-activity relationship” (Eur J Med Chem, 2024) are described below.

Take `C=CCc1cc(CN2CCC(N)CC2)c(O)c(-c2cc(CC=C)c(O)c(CN3CCC(N)CC3)c2)c1`: the figures for the IC50 in test [1] and in test [2] were 18 µM and 13.1 µM, respectively.
As to `C=CCc1cc(CC=C)c(O)c(-c2cc(CC=C)c(O)c(CC=C)c2)c1`, the IC50 in test [3] came to 11.1 µM; in test [4], 9.8 µM; in test [5], 19.8 µM.
On to `C/C(Cc1ccc(O)c(-c2ccc3oc(C)cc3c2)c1)=N\NC(=O)c1ccc(O)cc1`, for which, in test [6], the inhibition amounted to 81%.

The IC50 is the concentration needed to halve the response being measured. One may read the inhibition as the share of the control response that was lost under treatment. High values mean a strong effect, low ones a weak effect.
